Measured values reported in article PMC8534050, “Discovery of a Potent and Highly Isoform-Selective Inhibitor of the Neglected Ribosomal Protein S6 Kinase Beta 2 (S6K2)” (Cancers, 2021).

How the values were obtained:
[1] = target: T1, FGFR2 (Homo sapiens, UniProt P21802); assay: DSF thermal shift assay; type: binding; conditions: inhibitor 10 μM, protein 2 μM
T1 construct: purchased in-house DSF (thermal shift) panel per Fedorov et al
Method: (§1) Differences in the melting temperature (ΔTm) were measured as described by Fedorov et al.. Purified proteins were buffered in 25 mM HEPES (pH 7.5), 500 mM NaCl and were assayed in a 384-well plate with a final protein concentration of 2 μM in 10 μL assay volume. Inhibitors were added to a final concentration of 10 μM using an ECHO 550 acoustic dispenser (Labcyte, San José, CA, USA). As a fluorescence probe, SYPRO-Orange (Molecular Probes, Eugene, OR, USA) was added in a 1:5000 dilution. […] Data were analyzed through Boltzmann equation in the Protein Thermal Shift software (Applied Biosystems, Waltham, MA, USA). Samples were measured in technical duplicates.

[2] = target: T2, PIM1 (Homo sapiens, UniProt P11309); assay: DSF thermal shift assay; type: binding; conditions: inhibitor 10 μM, protein 2 μM
T2 construct: purchased in-house DSF (thermal shift) panel per Fedorov et al
T2 sequence (P11309 whole entry): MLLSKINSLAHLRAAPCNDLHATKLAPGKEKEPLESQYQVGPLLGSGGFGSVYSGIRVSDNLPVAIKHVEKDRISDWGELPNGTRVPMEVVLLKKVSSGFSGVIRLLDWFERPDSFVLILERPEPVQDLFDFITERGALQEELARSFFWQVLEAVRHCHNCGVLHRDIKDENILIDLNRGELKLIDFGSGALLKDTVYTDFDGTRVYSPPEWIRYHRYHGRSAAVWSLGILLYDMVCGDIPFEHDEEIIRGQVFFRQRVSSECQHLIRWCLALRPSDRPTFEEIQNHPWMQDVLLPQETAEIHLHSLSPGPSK
Method: as §1

[3] = target: T3, BRD4 (Homo sapiens, UniProt O60885); assay: DSF thermal shift assay; type: binding; conditions: inhibitor 10 μM, protein 2 μM
T3 construct: purchased in-house DSF (thermal shift) panel per Fedorov et al; IC50 follow-up at Reaction Biology Corp
Method: as §1

[4] = target: T4, MAPK8 (Homo sapiens, UniProt P45983); assay: DSF thermal shift assay; type: binding; conditions: inhibitor 10 μM, protein 2 μM
T4 construct: purchased in-house DSF (thermal shift) panel per Fedorov et al; IC50 follow-up at Reaction Biology Corp
T4 sequence (P45983 whole entry): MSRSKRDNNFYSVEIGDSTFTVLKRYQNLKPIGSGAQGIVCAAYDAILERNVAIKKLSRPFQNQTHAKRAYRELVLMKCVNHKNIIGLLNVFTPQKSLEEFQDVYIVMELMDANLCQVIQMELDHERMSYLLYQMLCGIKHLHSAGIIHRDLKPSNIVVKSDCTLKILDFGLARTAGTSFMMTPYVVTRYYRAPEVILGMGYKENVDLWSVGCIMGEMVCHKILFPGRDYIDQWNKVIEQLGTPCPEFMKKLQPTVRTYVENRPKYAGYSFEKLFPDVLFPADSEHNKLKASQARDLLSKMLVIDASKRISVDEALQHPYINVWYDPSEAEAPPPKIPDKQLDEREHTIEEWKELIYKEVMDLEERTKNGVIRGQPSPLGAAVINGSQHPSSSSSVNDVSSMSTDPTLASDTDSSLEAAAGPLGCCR
Method: as §1

[5] = target: T5, PIM3 (Homo sapiens, UniProt Q86V86); assay: DSF thermal shift assay; type: binding; conditions: inhibitor 10 μM, protein 2 μM
T5 construct: purchased in-house DSF (thermal shift) panel per Fedorov et al; IC50 follow-up at Reaction Biology Corp
Method: as §1

[6] = target: T6, MARK4 (Homo sapiens, UniProt Q96L34); assay: DSF thermal shift assay; type: binding; conditions: inhibitor 10 μM, protein 2 μM
T6 construct: purchased in-house DSF (thermal shift) panel per Fedorov et al; IC50 follow-up at Reaction Biology Corp
T6 sequence (Q96L34 whole entry): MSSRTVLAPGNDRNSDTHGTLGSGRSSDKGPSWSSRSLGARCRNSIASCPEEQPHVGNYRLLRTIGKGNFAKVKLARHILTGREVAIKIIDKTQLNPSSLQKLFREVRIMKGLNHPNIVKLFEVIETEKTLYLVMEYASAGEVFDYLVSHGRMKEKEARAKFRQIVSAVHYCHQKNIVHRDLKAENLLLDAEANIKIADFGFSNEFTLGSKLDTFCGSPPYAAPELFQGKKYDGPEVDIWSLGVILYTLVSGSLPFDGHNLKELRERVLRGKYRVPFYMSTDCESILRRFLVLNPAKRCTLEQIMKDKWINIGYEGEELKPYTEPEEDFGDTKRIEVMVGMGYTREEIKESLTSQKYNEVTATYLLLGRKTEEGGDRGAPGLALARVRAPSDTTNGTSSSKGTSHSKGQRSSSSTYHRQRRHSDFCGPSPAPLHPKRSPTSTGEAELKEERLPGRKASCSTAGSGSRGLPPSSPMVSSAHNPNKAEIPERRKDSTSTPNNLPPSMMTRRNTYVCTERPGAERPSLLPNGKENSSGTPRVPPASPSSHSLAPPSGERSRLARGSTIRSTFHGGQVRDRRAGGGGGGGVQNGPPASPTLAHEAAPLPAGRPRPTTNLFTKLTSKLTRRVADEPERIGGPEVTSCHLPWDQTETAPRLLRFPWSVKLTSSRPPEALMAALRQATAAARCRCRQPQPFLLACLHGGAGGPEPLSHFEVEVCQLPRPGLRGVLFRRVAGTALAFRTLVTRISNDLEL
Method: as §1

[7] = target: T7, RIOK1 (Homo sapiens, UniProt Q9BRS2); assay: DSF thermal shift assay; type: binding; conditions: inhibitor 10 μM, protein 2 μM
T7 construct: purchased in-house DSF (thermal shift) panel per Fedorov et al; IC50 follow-up at Reaction Biology Corp
T7 sequence (Q9BRS2 whole entry): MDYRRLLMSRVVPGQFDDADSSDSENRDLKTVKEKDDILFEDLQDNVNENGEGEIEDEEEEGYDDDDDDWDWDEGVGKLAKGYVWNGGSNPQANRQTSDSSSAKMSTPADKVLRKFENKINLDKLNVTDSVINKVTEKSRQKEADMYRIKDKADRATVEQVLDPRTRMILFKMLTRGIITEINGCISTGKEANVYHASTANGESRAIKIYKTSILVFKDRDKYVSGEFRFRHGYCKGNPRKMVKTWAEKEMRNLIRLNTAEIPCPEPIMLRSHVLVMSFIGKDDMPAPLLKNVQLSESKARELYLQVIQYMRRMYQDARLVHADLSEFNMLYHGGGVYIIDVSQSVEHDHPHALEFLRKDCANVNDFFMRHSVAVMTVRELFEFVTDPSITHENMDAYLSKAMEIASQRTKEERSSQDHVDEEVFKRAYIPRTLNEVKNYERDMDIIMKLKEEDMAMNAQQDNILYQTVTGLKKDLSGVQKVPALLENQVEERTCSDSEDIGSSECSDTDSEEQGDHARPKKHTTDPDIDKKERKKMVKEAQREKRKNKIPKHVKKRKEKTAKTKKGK
Method: as §1

[8] = target: T8, DYRK2 (Homo sapiens, UniProt Q92630); assay: DSF thermal shift assay; type: binding; conditions: inhibitor 10 μM, protein 2 μM
T8 construct: purchased in-house DSF (thermal shift) panel per Fedorov et al
Method: as §1

[9] = target: T9, MAPK15 (Homo sapiens, UniProt Q8TD08); assay: DSF thermal shift assay; type: binding; conditions: inhibitor 10 μM, protein 2 μM
T9 construct: purchased in-house DSF (thermal shift) panel per Fedorov et al
Method: as §1

[10] = target: T10, RPS6KA6 (Homo sapiens, UniProt Q9UK32); assay: DSF thermal shift assay; type: binding; conditions: inhibitor 10 μM, protein 2 μM
T10 construct: purchased in-house DSF (thermal shift) panel per Fedorov et al
Method: as §1

[11] = target: T11, GAK (Homo sapiens, UniProt O14976); assay: DSF thermal shift assay; type: binding; conditions: inhibitor 10 μM, protein 2 μM
T11 construct: purchased in-house DSF (thermal shift) panel per Fedorov et al; IC50 follow-up at Reaction Biology Corp
Method: as §1

[12] = target: T12, ABL1 (Homo sapiens, UniProt P00519); assay: DSF thermal shift assay; type: binding; conditions: inhibitor 10 μM, protein 2 μM
T12 construct: purchased in-house DSF (thermal shift) panel per Fedorov et al; IC50 follow-up at Reaction Biology Corp
Method: as §1

[13] = target: T13, GSK3B (Homo sapiens, UniProt P49841); assay: DSF thermal shift assay; type: binding; conditions: inhibitor 10 μM, protein 2 μM
T13 construct: purchased in-house DSF (thermal shift) panel per Fedorov et al; IC50 follow-up at Reaction Biology Corp
Method: as §1

[14] = target: T14, BMX (Homo sapiens, UniProt P51813); assay: DSF thermal shift assay; type: binding; conditions: inhibitor 10 μM, protein 2 μM
T14 construct: purchased in-house DSF (thermal shift) panel per Fedorov et al; IC50 follow-up at Reaction Biology Corp
T14 sequence (P51813 whole entry): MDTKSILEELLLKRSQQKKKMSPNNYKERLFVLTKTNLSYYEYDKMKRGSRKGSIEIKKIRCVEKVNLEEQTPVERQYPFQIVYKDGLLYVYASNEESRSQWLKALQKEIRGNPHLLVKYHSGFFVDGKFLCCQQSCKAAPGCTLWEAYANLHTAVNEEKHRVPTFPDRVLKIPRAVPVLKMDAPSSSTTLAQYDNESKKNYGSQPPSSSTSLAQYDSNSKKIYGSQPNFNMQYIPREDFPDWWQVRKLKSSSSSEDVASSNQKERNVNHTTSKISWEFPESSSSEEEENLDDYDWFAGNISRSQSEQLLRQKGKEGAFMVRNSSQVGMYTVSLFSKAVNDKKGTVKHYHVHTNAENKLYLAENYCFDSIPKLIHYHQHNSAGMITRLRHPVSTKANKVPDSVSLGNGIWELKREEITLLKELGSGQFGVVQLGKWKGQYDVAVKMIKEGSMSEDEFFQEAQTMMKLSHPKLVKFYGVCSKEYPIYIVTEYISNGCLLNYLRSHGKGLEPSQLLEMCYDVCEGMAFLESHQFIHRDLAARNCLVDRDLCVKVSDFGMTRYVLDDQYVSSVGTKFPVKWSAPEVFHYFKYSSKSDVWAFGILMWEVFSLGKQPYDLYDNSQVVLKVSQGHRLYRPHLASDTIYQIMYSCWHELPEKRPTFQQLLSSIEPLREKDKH
Method: as §1

[15] = target: T15, MAP2K6 (Homo sapiens, UniProt P52564); assay: DSF thermal shift assay; type: binding; conditions: inhibitor 10 μM, protein 2 μM
T15 construct: purchased in-house DSF (thermal shift) panel per Fedorov et al
Method: as §1

[16] = target: T16, AKT3 (Homo sapiens, UniProt Q9Y243); assay: DSF thermal shift assay; type: binding; conditions: inhibitor 10 μM, protein 2 μM
T16 construct: purchased in-house DSF (thermal shift) panel per Fedorov et al
Method: as §1

[17] = target: T17, SRC (Homo sapiens, UniProt P12931); assay: DSF thermal shift assay; type: binding; conditions: inhibitor 10 μM, protein 2 μM
T17 construct: purchased in-house DSF (thermal shift) panel per Fedorov et al
Method: as §1

[18] = target: T18, MST3 (Homo sapiens, UniProt Q9Y6E0); assay: DSF thermal shift assay; type: binding; conditions: inhibitor 10 μM, protein 2 μM
T18 construct: purchased in-house DSF (thermal shift) panel per Fedorov et al
T18 sequence (Q9Y6E0 whole entry): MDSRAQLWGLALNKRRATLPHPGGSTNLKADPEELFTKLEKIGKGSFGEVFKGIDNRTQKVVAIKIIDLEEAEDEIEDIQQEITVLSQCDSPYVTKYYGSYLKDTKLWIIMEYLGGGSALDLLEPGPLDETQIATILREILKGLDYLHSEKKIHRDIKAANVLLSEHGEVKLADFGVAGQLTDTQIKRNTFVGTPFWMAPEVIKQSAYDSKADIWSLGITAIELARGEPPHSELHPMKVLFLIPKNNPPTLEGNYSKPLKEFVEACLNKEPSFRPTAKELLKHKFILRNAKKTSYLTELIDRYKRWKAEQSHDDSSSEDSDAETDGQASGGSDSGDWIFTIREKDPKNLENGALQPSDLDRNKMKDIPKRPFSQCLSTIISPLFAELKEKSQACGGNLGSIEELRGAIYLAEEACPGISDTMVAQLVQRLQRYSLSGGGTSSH
Method: as §1

[19] = target: T19, DYRK1A (Homo sapiens, UniProt Q13627); assay: DSF thermal shift assay; type: binding; conditions: inhibitor 10 μM, protein 2 μM
T19 construct: purchased in-house DSF (thermal shift) panel per Fedorov et al
Method: as §1

[20] = target: T20, CAMK1G (Homo sapiens, UniProt Q96NX5); assay: DSF thermal shift assay; type: binding; conditions: inhibitor 10 μM, protein 2 μM
T20 construct: purchased in-house DSF (thermal shift) panel per Fedorov et al; IC50 follow-up at Reaction Biology Corp
Method: as §1

[21] = target: T21, STK6 (Homo sapiens, UniProt O14965); assay: DSF thermal shift assay; type: binding; conditions: inhibitor 10 μM, protein 2 μM
T21 construct: purchased in-house DSF (thermal shift) panel per Fedorov et al; IC50 follow-up at Reaction Biology Corp
T21 sequence (O14965 whole entry): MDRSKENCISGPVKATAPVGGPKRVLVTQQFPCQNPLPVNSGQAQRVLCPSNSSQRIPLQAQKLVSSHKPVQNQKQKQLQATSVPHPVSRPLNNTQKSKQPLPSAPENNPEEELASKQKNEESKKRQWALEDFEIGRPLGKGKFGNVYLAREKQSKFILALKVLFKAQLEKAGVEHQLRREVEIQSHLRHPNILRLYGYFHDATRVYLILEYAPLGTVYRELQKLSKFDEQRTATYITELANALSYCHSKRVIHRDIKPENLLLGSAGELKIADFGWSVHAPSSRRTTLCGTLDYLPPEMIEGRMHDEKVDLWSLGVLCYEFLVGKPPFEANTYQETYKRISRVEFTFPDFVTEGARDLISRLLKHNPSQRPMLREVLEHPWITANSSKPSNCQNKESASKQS
Method: as §1

[22] = target: T22, NEK1 (Homo sapiens, UniProt Q96PY6); assay: DSF thermal shift assay; type: binding; conditions: inhibitor 10 μM, protein 2 μM
T22 construct: purchased in-house DSF (thermal shift) panel per Fedorov et al
Method: as §1

[23] = target: T23, CAMK2D (Homo sapiens, UniProt Q13557); assay: DSF thermal shift assay; type: binding; conditions: inhibitor 10 μM, protein 2 μM
T23 construct: purchased in-house DSF (thermal shift) panel per Fedorov et al
T23 sequence (Q13557 whole entry): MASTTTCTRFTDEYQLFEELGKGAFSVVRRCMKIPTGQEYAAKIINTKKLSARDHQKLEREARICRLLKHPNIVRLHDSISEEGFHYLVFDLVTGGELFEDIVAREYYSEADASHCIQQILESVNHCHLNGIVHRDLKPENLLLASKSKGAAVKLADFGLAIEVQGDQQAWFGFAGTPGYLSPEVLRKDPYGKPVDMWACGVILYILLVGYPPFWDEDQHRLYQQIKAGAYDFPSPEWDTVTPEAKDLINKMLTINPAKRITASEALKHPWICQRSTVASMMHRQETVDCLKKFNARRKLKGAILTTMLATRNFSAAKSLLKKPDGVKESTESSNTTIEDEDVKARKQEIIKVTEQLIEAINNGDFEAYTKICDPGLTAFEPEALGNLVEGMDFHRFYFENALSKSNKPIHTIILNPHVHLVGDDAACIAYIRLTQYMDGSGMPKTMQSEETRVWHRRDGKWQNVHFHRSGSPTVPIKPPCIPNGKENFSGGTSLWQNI
Method: as §1

[24] = target: T24, MAPK1 (Homo sapiens, UniProt P28482); assay: DSF thermal shift assay; type: binding; conditions: inhibitor 10 μM, protein 2 μM
T24 construct: purchased in-house DSF (thermal shift) panel per Fedorov et al; IC50 follow-up at Reaction Biology Corp
Method: as §1

[25] = target: T25, MAPK10 (Homo sapiens, UniProt P53779); assay: DSF thermal shift assay; type: binding; conditions: inhibitor 10 μM, protein 2 μM
T25 construct: purchased in-house DSF (thermal shift) panel per Fedorov et al
Method: as §1

[26] = target: T26, CAMK1D (Homo sapiens, UniProt Q8IU85); assay: DSF thermal shift assay; type: binding; conditions: inhibitor 10 μM, protein 2 μM
T26 construct: purchased in-house DSF (thermal shift) panel per Fedorov et al; IC50 follow-up at Reaction Biology Corp
Method: as §1

[27] = target: T27, MELK (Homo sapiens, UniProt Q14680); assay: DSF thermal shift assay; type: binding; conditions: inhibitor 10 μM, protein 2 μM
T27 construct: purchased in-house DSF (thermal shift) panel per Fedorov et al
T27 sequence (Q14680 whole entry): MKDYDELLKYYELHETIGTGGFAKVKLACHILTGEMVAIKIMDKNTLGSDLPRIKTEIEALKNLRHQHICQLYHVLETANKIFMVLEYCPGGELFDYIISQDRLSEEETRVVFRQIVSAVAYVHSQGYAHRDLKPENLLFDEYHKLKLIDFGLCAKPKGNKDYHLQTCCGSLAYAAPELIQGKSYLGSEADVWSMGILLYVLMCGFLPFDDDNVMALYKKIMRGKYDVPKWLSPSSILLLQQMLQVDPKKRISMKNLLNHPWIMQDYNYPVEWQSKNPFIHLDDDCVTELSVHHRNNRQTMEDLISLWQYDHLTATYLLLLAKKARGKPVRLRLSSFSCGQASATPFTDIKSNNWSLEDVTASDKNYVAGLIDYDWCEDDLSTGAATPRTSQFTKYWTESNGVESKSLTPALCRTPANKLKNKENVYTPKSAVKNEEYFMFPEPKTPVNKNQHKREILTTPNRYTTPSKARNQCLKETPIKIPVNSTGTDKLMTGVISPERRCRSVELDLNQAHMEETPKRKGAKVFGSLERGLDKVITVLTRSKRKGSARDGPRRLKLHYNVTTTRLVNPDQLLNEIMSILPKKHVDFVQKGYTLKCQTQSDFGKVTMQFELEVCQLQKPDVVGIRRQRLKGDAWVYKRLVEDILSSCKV
Method: as §1

[28] = Microsomal stability; type: in vitro ADME, mouse; conditions: 100 μM, NADPH-regenerating system, up to 90 min
Method: Pooled liver microsomes from mice (male) were purchased from XenoTech LLC (Sekisui XenoTech LLC, Kansas City, KS, USA). Incubation of compound 2 was made in the presence of an NADPH-regenerating system (5 mM glucose-6-phosphate, 5 U/mL glucose-6-phosphate dehydrogenase, and 1 mM NADP^+). Compound 2 (100 μM), the NADPH-regenerating system, and 4 mM MgCl2⋅6 H2O in 0.1 M Tris buffer (pH 7.4) were preincubated for 5 min at 37 °C and 750 rpm on a shaker. The incubation mix was split into aliquots (50 μL) and the reaction was started by the addition of mouse liver microsomes. The reaction was quenched at selected time points (0, 10, 20, 30, 60, and 90 min) by adding 100 μL internal standard at a concentration of 50 μM in MeCN. The samples were vortexed for 30 s and centrifuged (19,800 relative centrifugal force/4 °C/15 min). The supernatant was directly used for LC-MS analysis. All incubations were conducted in triplicates and a limit of 1% organic solvent was not exceeded. […]
Detection was performed on a Micromass Quattro micro triple quadrupole mass spectrometer (Waters GmbH, Eschborn, Germany) using electrospray ionization in positive mode. […] The data were analyzed using MassLynx 4.1 (Waters Corporation, Milford, MA, USA)

ΔTm at 10 µM [1]: 0.3 °C | ΔTm at 10 µM [2]: -0.6 °C | ΔTm at 10 µM [3]: -1 °C | ΔTm at 10 µM [4]: 0.3 °C | ΔTm at 10 µM [5]: -0.6 °C | ΔTm at 10 µM [6]: 0.1 °C | ΔTm at 10 µM [7]: 0.2 °C | ΔTm at 10 µM [8]: 0.1 °C | ΔTm at 10 µM [10]: 0.6 °C | ΔTm at 10 µM [11]: -0.6 °C | ΔTm at 10 µM [12]: 0.6 °C | ΔTm at 10 µM [13]: 0.4 °C | ΔTm at 10 µM [14]: -0.5 °C | ΔTm at 10 µM [15]: 0.5 °C | ΔTm at 10 µM [16]: 0.2 °C | ΔTm at 10 µM [17]: -0.5 °C | ΔTm at 10 µM [18]: -0.3 °C | ΔTm at 10 µM [19]: -2.4 °C | ΔTm at 10 µM [20]: -0.6 °C | ΔTm at 10 µM [21]: 0.2 °C | ΔTm at 10 µM [22]: -0.7 °C | ΔTm at 10 µM [23]: -0.1 °C | ΔTm at 10 µM [24]: -0.2 °C | ΔTm at 10 µM [25]: 0.1 °C | ΔTm at 10 µM [26]: 1.1 °C | ΔTm at 10 µM [27]: 0.4 °C | stability in mouse liver microsomes [28]: acceptable stability
SMILES: CCc1cnc(Nc2nc(Cl)ccc2[N+](=O)[O-])nc1N1CCN(Cc2nc3cc(C(F)(F)F)ccc3[nH]2)CC1 [Compound 2]
ΔTm at 10 µM [9]: -0.2 °C
